Values quoted from earlier work as cited in patent US9248119B2, “Modified release dosage forms of xanthine oxidoreductase inhibitor or xanthine oxidase inhibitors” (Takeda Pharmaceuticals U.S.A., Inc., priority 2010, dated 2016).

Columns and labels:
[1] = test system: renal injury and hypertension associated with hyperuricemia; conditions: Mazzali M, et al.; cited from earlier work
[2] = test system: xanthine oxidoreductase; conditions: cited from earlier work

Row | SMILES | protection against renal injury and hypertension associated with hyperuricemia [1] | inhibition of xanthine oxidoreductase activity [2]
1 | Oc1ncnc2[nH]ncc12 [Allopurinol] | prevent the renal injury and hypertension | –
2 | CCc1oc2ccccc2c1C(=O)c1cc(I)c(O)c(I)c1 [Benziodarone] | lower | does not inhibit
